Experimental data reported in PMC9414676, “Experimental Studies Indicate That ST-2223, the Antagonist of Histamine H3 and Dopamine D2/D3 Receptors, Restores Social Deficits and Neurotransmission Dysregulation in Mouse Model of Autism” (Pharmaceuticals, 2022).
“Also recorded” adds a separate entry of the source.

Columns and labels:
hD3R = molecular target: T1, hD3R (Homo sapiens, UniProt P35462); assay: [3H]spiperone displacement assay, CHO cells expressing hD3Rs; type: binding; details: ratio of Ki values
T1 construct: expressed in transfected cells; host or cells: CHO cells (from the earlier reading's assay name)
T1 sequence (P35462 whole entry): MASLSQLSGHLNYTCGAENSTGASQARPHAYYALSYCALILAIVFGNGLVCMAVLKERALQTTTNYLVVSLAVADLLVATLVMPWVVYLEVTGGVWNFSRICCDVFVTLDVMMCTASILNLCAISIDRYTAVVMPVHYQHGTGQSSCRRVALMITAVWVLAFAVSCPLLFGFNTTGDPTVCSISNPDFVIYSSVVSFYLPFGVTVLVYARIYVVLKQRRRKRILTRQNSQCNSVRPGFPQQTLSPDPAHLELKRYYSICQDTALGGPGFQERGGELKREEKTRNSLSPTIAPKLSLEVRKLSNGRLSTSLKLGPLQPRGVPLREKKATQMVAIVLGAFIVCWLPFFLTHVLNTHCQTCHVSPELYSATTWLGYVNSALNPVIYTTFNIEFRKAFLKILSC

BTBR mice = assay: Social approach test (SAT), sociability (novel mouse vs novel object); type: in vivo
Method: (§1) All the mice were randomly divided into nine groups of 5–7 mice each. The mice were injected intraperitonially once daily for 21 days with different doses of ST2223 (2.5, 5, and 10 mg/kg, i.p.), ARP 1 mg/kg or vehicle (1% DMSO in 0.9% normal saline). Group I, B6 mice were injected with vehicle served as control. Group II, BTBR mice were treated with vehicle. Groups III–V, BTBR mice received i.p. injections of different doses of ST2223 (2.5, 5, and 10 mg/kg, i.p.), respectively. Group VI, BTBR mice were injected with ARP (1 mg/kg, i.p.). For abrogation studies, Group VII, BTBR mice were treated with ST2223 (5 mg/kg, i.p.) along with RAM (10 mg/kg, i.p.). Group VIII, B6 mice were co-injected with vehicle and RAM (10 mg/kg, i.p). All treatments and vehicle (VEH) were administered 30–45 min before each behavioral test. The doses of these drugs were selected based on previous reports. Behavioral testing was performed between 9:00 am and 3:00 pm in an order randomized by group and in the following sequence: social approach test (SAT) and open field locomotor test (OFL). The chronic treatment started one week before the behavioral test and was continued for a total of 21 days as described above (Figure 7). Following behavioral tests, i.e., on day 21 of systemic treatment, five of the animals were sacrificed. The animals were deeply anesthetized with pentobarbital (40 mg/kg, i.p., body weight). To wash out the blood, cardiac perfusion was carried out using 0.01 M phosphate-buffered saline (PBS) at pH 7.4. The brains were quickly removed and placed on an ice plate, where the cerebellum, hippocampus, prefrontal cortex, and striatum were excised from the brain and snap-frozen in liquid nitrogen for later LC-MS/MS analysis.
The social approach test (SAT) was performed using an automated three-chamber device (EthoVision® Software, Noldus, The Netherlands) as previously described. The transparent polycarbonate chamber is rectangular and is composed of three interconnected partitions (homemade), which are separated by two sliding doors. In brief, after 10 min of habituation, the study mouse was placed in the central chamber with the doors opened, and the mouse was given the choice to interact with either an empty plastic cup located in one side chamber, referred to as a novel object (NO), or a similar plastic cup with an unfamiliar mouse inside it located in the opposite chamber, referred to as a novel mouse (NM), which was matched in age, sex, and strain with test mouse. To avoid innate side preferences, the plastic cup for NO and NM were randomly placed in either chamber and the placement was changed between studies and between mice. For 10 min, the test mouse was allowed to explore all three chambers and cups, and the time spent interacting with NO and NM (sniffing) was automatically recorded by EthoVision® Software. Immediately after this session, a novel mouse is kept in the empty cup and is referred to as novel mouse (NM), and the mouse in the other cup from the earlier session is referred to as familiar mouse (FM). The study mouse is allowed to explore the three chambers for 10 min, and the time spent for interacting with both mice was automatically recorded, to assess social novelty preference. Eight groups of 7 mice/group were used for the SAT. To allow the direct comparison of social behavior between the treated groups, the sociability index (SI) and social novelty index (SNI) were calculated with the following formula, as previously described: SI=(Time exploring NM−Time exploring NO)/(Time exploring NM+Time exploring NO) SNI=(Time exploring NM−Time exploring FM)/(Time exploring NM+Time exploring FM)

[1] = tested on: histamine levels in BTBR mice brain; assay: Histamine levels by LC-MS/MS in brain regions; type: in vivo; parameters: key to Histamine level: ↔: No significant alterations; ↑: significant increase; ↑↑: additional significant increase vs. ST-2223-treated mice; ↓: significant decrease; details: ST-2223 5 mg/kg i.p. chronic, vs VEH-treated BTBR mice
Method: as §1
(§2) Perfusion was done on anesthetized animals using 1X PBS as described previously. Different regions of the brain were snap frozen. Frozen tissues were then weighed and homogenized in a 10-fold volume of acetonitrile. For 50mg of tissue, 500 µL of acetonitrile and Internal standard mix were added and homogenized. Homogenates were centrifuged at 15,000 rcf for 15 min at 4 °C. Tissue levels of dopamine, acetylcholine, histamine, and their metabolites were assessed using LC-MS/MS. LC-MS/MS analysis was conducted utilizing Waters BEH C18 COLUMN (2.1 × 100 mm, 1.7 µm) using Waters Acquity UPLC Binary Solvent Manager and FTN Sample Manager. The system was run in gradient mode with mobile phase A consisting of LC-MS GRADE WATER + 0.1% FORMIC ACID and mobile phase B consisting of 100% ACETONITRILE. Mobile phase was duly filtered through 0.2 µm filter and degassed ultrasonically for 15 min prior to use. Separations were performed at room temperature with 0.3 mL/min flow rate gradient starting with 90% of A for up to 0.5 min. Then, % of A was decreased gradually until it reached 20% at 2.5 min after which at 3 min %A was brought back to the initial condition and left for equilibration for 2 more minutes before the next injection (total 5 min run time). The injection volume was kept at 1 µL. Mass spectrometric detection was performed in multiple reaction monitoring (MRM) mode with positive electrospray ionization (ESI+) on Xevo TQS mass spectrometer (Waters, Milford, MA) equipped with an electrospray ionization (ESI) source and triple quadrupole mass analyzer. MRM transitions and instrument parameters were set by tuning the instrument by infusing each analyte. MRM transitions taken for quantification were 146.2 > 87.1 for Acetylcholine, 112.2 > 95.2 for Histamine, 154.1 > 137.2 for Dopamine, 150.2 > 91.3 for Acetylcholine D4, and […] > 99.3 for Histamine D4. Capillary Voltage, Source Offset, Source Temperature, De solvation Temperature, Cone Gas Flow, De solvation Gas Flow, Collision Gas Flow, Nebulizer Gas Flow were set as 3.0 (kV), 60.0 (V), 150 (°C), 550 (°C), 150 (L/Hr), 1000 (L/Hr), 0.13 (mL/min), and 7 (Bar), correspondingly. […]

[2] = tested on: acetylcholine levels in BTBR mice brain; assay: Acetylcholine levels by LC-MS/MS in brain regions; type: in vivo; parameters: key to Acetylcholine level: ↔: No significant alterations; ↑: significant increase; ↑↑: additional significant increase vs. ST-2223-treated mice; ↓: significant decrease; details: for Acetylcholine level: ST-2223 5 mg/kg i.p. chronic, vs VEH-treated BTBR mice
Method: as §1, §2

B6 control mice = tested on: B6 control mice; parameters: method as in PMID 33669336; details: cited from earlier work

With `COc1ccccc1N1CCN(CCCCNC(=O)c2ccc3cc(OCCCN4CCCCC4)ccc3c2)CC1` [ST-2223, N-(4-(4-(2-methoxyphenyl)piperazin-1-yl)butyl)-6-(3-(piperidin-1-yl)propoxy)-2-naphthamide] the “ratio of hD2Rs/hD3Rs” value (hD3R) was 10, the “time spent with novel mouse (NM) vs novel object (NO)” value (“time spent … vs novel object (NO)” for short) (BTBR mice; ST-2223 2.5 mg/kg i.p. chronic, p = 0.48) was “unsuccessful to exert remarked improvement” and the “exploring time spent with NM vs VEH-treated BTBR mice” value (BTBR mice; ST-2223 2.5 mg/kg i.p. chronic, p > 0.05) was “not a significant level”. The “exploring time spent with NM vs VEH-treated BTBR mice” value (BTBR mice; ST-2223 5 mg/kg i.p. chronic, p < 0.001) was “significantly improved exploring time spent with NM”, the “time spent … vs novel object (NO)” value (BTBR mice; ST-2223 5 mg/kg i.p. chronic, p < 0.01) was “significantly enhanced time spent with the NM” and the “sociability index (SI) vs VEH-treated BTBR mice” value (BTBR mice; ST-2223 5 mg/kg i.p. chronic, p < 0.05) was “significant improvement in sociability”. The “time spent … vs novel object (NO)” value (BTBR mice; ST-2223 10 mg/kg i.p. chronic, p = 0.53) was “unsuccessful to exert remarked improvement”, the Histamine level ([1]; Cerebellum) was “↑ ^b” and the Histamine level ([1]; Hippocampus) was “↔”. For the same compound, the Histamine level ([1]; Prefrontal cortex) was “↔”, the “levels of histamine in brain regions” value ([1]; 5 mg/kg) was “significantly increased the levels of histamine in cerebellum and striatum; also recorded: without significant enhancement of brain histamine in hippocampal tissues” and the Histamine level ([1]; Striatum) was “↑ ^b”. The Acetylcholine level ([2]; Hippocampus) was “↑ ^b”, the Acetylcholine level ([2]; Prefrontal cortex) was “↑ ^b” and the Acetylcholine level ([2]; Striatum) was “↑ ^b”. For the same compound, the “acetylcholine levels” value ([2]; prefrontal cortex, striatum and hippocampus, ST-2223 5 mg/kg chronic, p < 0.05) was “significant increase of acetylcholine levels” and the “behavioral alterations in B6 control mice” value (B6 control mice) was “no behavioral alterations”.
